Reference: article PMC5535840 (International Journal of Molecular Sciences, 2017)
Like-named read-outs stand apart in the source and are kept apart here.

Tests used:
[1] = target: T1, hMT1; MT1 melatonin receptor (Homo sapiens, UniProt P48039); test: […]-GTPγS binding, CHO-K1 membranes; format: biochemical; conditions: read-out: MT1 / pEC50 (converted)
T1 construct: gene MTNR1A

[2] = target: T2, hMT2; MT2 melatonin receptor (Homo sapiens, UniProt P49286); test: […]-GTPγS binding, CHO-K1 membranes; format: biochemical
T2 construct: gene MTNR1B
T2 sequence (P49286 1-362): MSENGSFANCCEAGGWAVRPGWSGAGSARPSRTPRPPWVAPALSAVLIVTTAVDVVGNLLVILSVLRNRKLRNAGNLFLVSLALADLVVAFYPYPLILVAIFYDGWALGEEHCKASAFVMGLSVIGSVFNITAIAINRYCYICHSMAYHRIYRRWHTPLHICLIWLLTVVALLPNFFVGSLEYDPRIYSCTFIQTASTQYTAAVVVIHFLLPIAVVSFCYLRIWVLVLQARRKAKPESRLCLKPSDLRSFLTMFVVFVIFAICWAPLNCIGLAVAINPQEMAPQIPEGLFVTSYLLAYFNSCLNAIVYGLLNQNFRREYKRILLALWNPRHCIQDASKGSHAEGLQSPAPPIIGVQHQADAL

[3] = target: T2, hMT2; MT2 melatonin receptor; test: […]-[…]-iodomelatonin displacement, CHO-K1 membranes; format: binding
[4] = target: T1, hMT1; MT1 melatonin receptor; test: as above; format: binding
[5] = read-out: MT2 / pEC50 (converted)
[6] = radioligand […]-[…]-iodomelatonin

T1 sequence (P48039 whole entry): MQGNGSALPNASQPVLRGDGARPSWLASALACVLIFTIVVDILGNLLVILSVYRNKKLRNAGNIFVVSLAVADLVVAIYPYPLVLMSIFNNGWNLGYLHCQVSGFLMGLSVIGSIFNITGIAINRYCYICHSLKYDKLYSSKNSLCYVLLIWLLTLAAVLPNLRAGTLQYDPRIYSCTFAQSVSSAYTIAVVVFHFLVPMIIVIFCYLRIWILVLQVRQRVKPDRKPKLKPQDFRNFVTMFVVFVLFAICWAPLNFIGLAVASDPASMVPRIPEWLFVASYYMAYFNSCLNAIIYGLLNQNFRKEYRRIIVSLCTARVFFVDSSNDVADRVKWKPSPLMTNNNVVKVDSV

Row | SMILES | EC50 [1] | EC50 [2, 5] | Ki [3, 6] | Ki [4] | Ki [3] | Ki [4, 6] | EC50 ([2]; read-out: MT1 / pEC50 (converted))
1 | COc1cc(Br)c(Cc2cc(OC)c(OC)cc2CC(=O)OC(C)(C)C)cc1OC [DIV0879] | > 10000 nM | 1.38 nM | 1.4 ± 0.1 nM | 1780 ± 118 nM |  |  | 
2 | COc1cc(I)c(Cc2cc(OC)c(OC)cc2CC(=O)OC(C)(C)C)cc1OC [DIV0880] | > 10000 nM | 0.331 nM |  | 1200 ± 143 nM | 1 ± 0.1 nM |  | 
3 | COc1ccc(Cc2cc(OC)c(OC)cc2CC(=O)OC(C)(C)C)cc1OC [DIV4288] | > 10000 nM | 2.04 nM | 1.4 ± 0.1 nM |  |  | 1300 ± 97 nM | 
4 | COc1cc(F)c(Cc2cc(OC)c(OC)cc2CC(=O)OC(C)(C)C)cc1OC [DIV6518] | > 10000 nM | 1.17 nM | 1.4 ± 0.3 nM |  |  | 630 ± 55 nM | 
5 | COc1cc(CC(=O)OC(C)(C)C)c(Cc2cc(OC)c(OC)cc2-c2ccccc2)cc1OC [DIV6519] | > 10000 nM |  | 0.49 ± 0.01 nM |  |  | 44 ± 7 nM | > 10000 nM
